The target in this assay is T1, human TRPC6 (Homo sapiens, UniProt Q9Y210).
T1 construct: expressed in transfected cells
T1 sequence (Q9Y210 1-931): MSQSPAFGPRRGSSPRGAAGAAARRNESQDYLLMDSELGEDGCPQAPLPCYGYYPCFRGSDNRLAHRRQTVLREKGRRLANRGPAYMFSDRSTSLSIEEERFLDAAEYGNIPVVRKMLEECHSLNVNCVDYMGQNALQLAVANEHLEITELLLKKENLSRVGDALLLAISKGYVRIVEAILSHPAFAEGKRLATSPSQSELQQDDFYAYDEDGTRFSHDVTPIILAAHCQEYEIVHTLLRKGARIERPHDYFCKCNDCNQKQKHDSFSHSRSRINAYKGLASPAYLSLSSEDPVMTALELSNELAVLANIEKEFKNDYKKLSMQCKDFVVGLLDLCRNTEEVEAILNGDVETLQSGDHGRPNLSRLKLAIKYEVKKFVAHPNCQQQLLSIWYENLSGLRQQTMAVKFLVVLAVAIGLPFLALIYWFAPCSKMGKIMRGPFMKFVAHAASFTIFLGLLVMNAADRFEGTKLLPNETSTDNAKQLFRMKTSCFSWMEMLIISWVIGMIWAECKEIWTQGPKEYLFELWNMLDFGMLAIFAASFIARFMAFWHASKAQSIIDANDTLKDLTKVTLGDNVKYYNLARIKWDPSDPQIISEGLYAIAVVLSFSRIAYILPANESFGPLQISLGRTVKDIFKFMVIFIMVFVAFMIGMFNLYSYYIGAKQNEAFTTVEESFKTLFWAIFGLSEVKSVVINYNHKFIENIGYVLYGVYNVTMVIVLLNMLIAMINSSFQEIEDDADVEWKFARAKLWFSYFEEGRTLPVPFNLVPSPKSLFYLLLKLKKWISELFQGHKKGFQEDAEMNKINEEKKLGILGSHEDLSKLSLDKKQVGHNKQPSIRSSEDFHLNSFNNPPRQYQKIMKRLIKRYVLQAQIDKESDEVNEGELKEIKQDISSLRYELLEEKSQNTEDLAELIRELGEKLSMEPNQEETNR
As to the kind of experiment: TRPC6 calcium flux assay (FLIPR, OAG-stimulated calcium influx). The note with it: HEK293 cells stably transfected with human TRPC6, read-out: hTRPC6 Potency. Format: cell-based. As for the experimental part: Biological Example 1 TRPC6 Calcium Flux Assay
Potency of TRPC6 (Transient receptor potential channel family C6) inhibitors were measured by their inhibition of Calcium influx trigged by […] (1-Oleoyl-2-acetyl-sn-glycerol, Millipore Sigma, O6754) stimulation on HEK293 cells stablely transfected with human TRPC6 using a FLIPR tetra system. Cells were grown in a humidified environment at 37° C. under 5% CO2 using the growth medium with the following selective reagents (Dulbecco's Modified Eagle's Medium (DMEM) high glucose, 10% Fetal Bovine Serum, 1×PSGlu (penicillin-streptomycin glutamine), 1×NEAA (Non-essential amino acid), 1× Na Pyruvate and 200 ug/ml Hygromycin). For general passage, cells were grown to 70-90% confluency; the media was removed, and the cells were gently washed 2 times with calcium and magnesium free PBS (phosphate-buffered saline). Trypsin (3 mL) was applied for 5 minutes at 37° C. The cells were dislodged by rapping flask against base of a hand and 7 mL of growth medium was added to deactivate trypsin and re-suspend cells. The usual splitting schedule was 1:5 every 2-3 days.
Cells were plated the day before the assay, plating cell density is 1.0-1.5×10^4/25 μl/well in poly-D-lysine (PDL) coated 384-well plates using either multichannel pipettes or multidrop. These cells were first incubated with fluorescence dye at room temperature for 90-120 minutes after they were grown on PDL-coated 384-well black plates overnight (Dye loading buffer 10 ml example: 9 mL assay buffer, 1 mL, 10×PBX signal enhancer, 10 μL Calcium indicator). The cells were incubated with a dose of compounds for 25 minutes before being stimulated with TRPC6 agonist OAG. The OAG solution was prepared by adding OAG into assay buffer (Ca ringer solution base: 10 mM HEPES (4-(2-hydroxyethyl)-1-piperazine-ethanesulfonic acid), 4 mM MgCl2, 120 mM NaCl, 5 mM KCl, pH=7.2 @25° C.)+0.1% BSA+2 mM CaCl2) to the concentration of 0.2 mM/2% DMSO, which achieves a final on cell concentration of 50 uM/0.5% DMSO. 12.5 uL OAG mixture was added and the activation of the TRPC6 channel was measured by the change of intracellular Calcium levels on FLIPR terra system.
Data was acquired by measuring the fluorescent peak signal subtracted from the background during the 180 second imaging frame. Each data point is further normalized to 100% of OAG triggered signal vs. buffer. Table 16 provides the IC50 for each compound, which data is obtained by plotting peak signal over the compound dose.

Results on 19 compounds are retold here after patent publication US11332459B2 (TEIJIN PHARMA LIMITED, priority 2017, dated 2022).

As for “4-((2-((3R,4R)-3-amino-4-hydroxypiperidin-1-yl)-1H-benzo[d]imidazol-1-yl)methyl)benzonitrile compound with 4-((2-((3S,4S)-3-amino-4-hydroxypiperidin-1-yl)-1H-benzo[d]imidazol-1-yl)methyl)benzonitrile (1:1) dihydrochloride [Example 155]”, the IC50 is 16.2 nM.

Turning to `CCN(CC(C)C#N)C(=O)Cn1c(N2CC[C@@H](F)[C@H](N)C2)nc2cc(F)c(F)cc21` (mixture of isomers) [Example 237, 2-(2-((3R,4R)-3-amino-4-fluoropiperidin-1-yl)-5,6-difluoro-1H-benzo[d]imidazol-1-yl)-N-(2-cyanopropyl)-N-ethylacetamide], the IC50 was found to be 223 nM.

As to `CN1CCC(n2c(N3CC[C@@H](F)[C@H](N)C3)nc3cc(F)c(F)cc32)C1=O` (mixture of isomers) [Example 238, 3-(2-((3R,4R)-3-amino-4-fluoropiperidin-1-yl)-5,6-difluoro-1H-benzo[d]imidazol-1-yl)-1-methylpyrrolidin-2-one], the IC50 is 185 nM.

For `N[C@@H]1CN(c2nc3cc(F)c(F)cc3n2C2CCCN(c3ccccc3)C2=O)CC[C@H]1F` (mixture of isomers) [Example 239, 3-(2-((3R,4R)-3-amino-4-fluoropiperidin-1-yl)-5,6-difluoro-1H-benzo[d]imidazol-1-yl)-1-phenylpiperidin-2-one], the IC50 amounted to 562 nM.

With `N[C@@H]1CN(c2nc3cc(F)c(F)cc3n2C2CCN(c3ccc(Cl)cc3)C2=O)CC[C@H]1F` (mixture of isomers) [Example 240, 3-(2-((3R,4R)-3-amino-4-fluoropiperidin-1-yl)-5,6-difluoro-1H-benzo[d]imidazol-1-yl)-1-(4-chlorophenyl)pyrrolidin-2-one], the IC50 was 10.7 nM.

Consider `CC(c1cccc(C#N)c1)n1c(N2CC[C@@H](F)[C@H](N)C2)nc2cc(F)c(F)cc21` (mixture of isomers) [Example 302, 3-(1-(2-((3R,4R)-3-amino-4-fluoropiperidin-1-yl)-5,6-difluoro-1H-benzo[d]imidazol-1-yl)ethyl)benzonitrile], for which the IC50 came out at 101 nM.

Take `CC(c1ccc(C#N)cc1)n1c(N2CCC[C@H](N)C2)nc2ccccc21` (mixture of isomers) [Example 399, 4-(1-(2-((S)-3-aminopiperidin-1-yl)-1H-benzo[d]imidazol-1-yl)ethyl)benzonitrile]: the IC50 worked out at 20.5 nM.

Take `N[C@@H]1CN(c2nc3cc(F)c(F)cc3n2CC(=O)N2CCCC(C(F)(F)F)C2)CC[C@H]1F` (mixture of isomers) [Example 504, 2-(2-((3R,4R)-3-amino-4-fluoropiperidin-1-yl)-5,6-difluoro-1H-benzo[d]imidazol-1-yl)-1-(3-(trifluoromethyl)piperidin-1-yl)ethan-1-one]: the IC50 is 39.3 nM.

For the compound `CC1CN(C(=O)Cn2c(N3CC[C@@H](F)[C@H](N)C3)nc3cc(F)c(F)cc32)CCO1` (mixture of isomers) [Example 507], the IC50 turned out to be 102 nM.

With `N[C@@H]1CN(c2nc3cc(F)c(F)cc3n2CC(=O)N(c2ccccc2)C2C=CS(=O)(=O)C2)CC[C@H]1F` (mixture of isomers) [Example 515, 2-(2-((3R,4R)-3-amino-4-fluoropiperidin-1-yl)-5,6-difluoro-1H-benzo[d]imidazol-1-yl)-N-(1,1-dioxido-2,3-dihydrothiophen-3-yl)-N-phenylacetamide], the IC50 stood at 186 nM.

`N[C@@H]1CN(c2nc3cc(F)c(F)cc3n2CC(=O)N(Cc2cccs2)C2CCS(=O)(=O)C2)CC[C@H]1F` (mixture of isomers) [Example 522, 2-(2-((3R,4R)-3-amino-4-fluoropiperidin-1-yl)-5,6-difluoro-1H-benzo[d]imidazol-1-yl)-N-(1,1-dioxidotetrahydrothiophen-3-yl)-N-(thiophen-2-ylmethyl)acetamide]: the IC50 worked out at 762 nM.

With `N[C@@H]1CN(c2nc3cc(F)c(F)cc3n2CC(=O)N2CCC3CCCCC3C2)CC[C@H]1F` (mixture of isomers) [Example 523, 2-(2-((3R,4R)-3-amino-4-fluoropiperidin-1-yl)-5,6-difluoro-1H-benzo[d]imidazol-1-yl)-1-(octahydroisoquinolin-2(1H)-yl)ethan-1-one], the IC50 was 988 nM.

With `CN(C(=O)Cn1c(N2CC[C@@H](F)[C@H](N)C2)nc2cc(F)c(F)cc21)C1CCS(=O)(=O)C1` (mixture of isomers) [Example 525, 2-(2-((3R,4R)-3-amino-4-fluoropiperidin-1-yl)-5,6-difluoro-1H-benzo[d]imidazol-1-yl)-N-(1,1-dioxidotetrahydrothiophen-3-yl)-N-methylacetamide], the IC50 is 1780 nM.

In the case of `CCN(C(=O)Cn1c(N2CC[C@@H](F)[C@H](N)C2)nc2cc(F)c(F)cc21)C1CCS(=O)(=O)C1` (mixture of isomers) [Example 527, 2-(2-((3R,4R)-3-amino-4-fluoropiperidin-1-yl)-5,6-difluoro-1H-benzo[d]imidazol-1-yl)-N-(1,1-dioxidotetrahydrothiophen-3-yl)-N-ethylacetamide], the IC50 was 3010 nM.

As for `NC(=O)C1CCCN(C(=O)Cn2c(N3CC[C@@H](F)[C@H](N)C3)nc3cc(F)c(F)cc32)C1` (mixture of isomers) [Example 530, 1-(2-(2-((3R,4R)-3-amino-4-fluoropiperidin-1-yl)-5,6-difluoro-1H-benzo[d]imidazol-1-yl)acetyl)piperidine-3-carboxamide], the IC50 was > 3750 nM.

`N[C@@H]1CN(c2nc3cc(F)c(F)cc3n2CC(=O)N2CCC3CC32)CC[C@H]1F` (mixture of isomers) [Example 609, 2-(2-((3R,4R)-3-amino-4-fluoropiperidin-1-yl)-5,6-difluoro-1H-benzo[d]imidazol-1-yl)-1-(2-azabicyclo[3.1.0]hexan-2-yl)ethanone]: the IC50 worked out at 20.3 nM.

`CC(CC#N)N(C)C(=O)Cn1c(N2CC[C@@H](F)[C@H](N)C2)nc2cc(F)c(F)cc21` (mixture of isomers) [Example 612, 2-(2-((3R,4R)-3-amino-4-fluoropiperidin-1-yl)-5,6-difluoro-1H-benzo[d]imidazol-1-yl)-N-(1-cyanopropan-2-yl)-N-methylacetamide]: the IC50 turned out to be 22.4 nM.

With `CC(N(C)C(=O)Cn1c(N2CC[C@@H](F)[C@H](N)C2)nc2cc(F)c(F)cc21)C(F)(F)F` (mixture of isomers) [Example 614, 2-(2-((3R,4R)-3-amino-4-fluoropiperidin-1-yl)-5,6-difluoro-1H-benzo[d]imidazol-1-yl)-N-methyl-N-(1,1,1-trifluoropropan-2-yl)acetamide], the IC50 came out at 24.8 nM.

Regarding `N[C@@H]1CN(c2nc3cc(F)c(F)cc3n2CC(=O)N2CCOC3CCOCC32)CC[C@H]1F` (mixture of isomers) [Example 620, 2-(2-((3R,4R)-3-amino-4-fluoropiperidin-1-yl)-5,6-difluoro-1H-benzo[d]imidazol-1-yl)-1-(hexahydropyrano[4,3-b][1,4]oxazin-4(7H)-yl)ethanone], the IC50 worked out at 60.4 nM.
